Measured values reported in ChEMBL document CHEMBL1140970, “Synthesis and in vitro anti-Helicobacter pylori activity of N-[5-(5-nitro-2-heteroaryl)-1,3,4-thiadiazol-2-yl]thiomorpholines and related compounds” (2008).

Experiments:
Format in all cases: functional
Settings in all cases: read-out: IZ
Helicobacter pylori [1] = assay: Antibacterial activity against metronidazole-sensitive Helicobacter pylori at 16 ug/disk after 3 to 5 days by filter paper disk diffusion method
Helicobacter pylori [2] = assay: Antibacterial activity against metronidazole-sensitive Helicobacter pylori at 32 ug/disk after 3 to 5 days by filter paper disk diffusion method
Helicobacter pylori [3] = assay: Antibacterial activity against metronidazole-resistant Helicobacter pylori at 8 ug/disk after 3 to 5 days by filter paper disk diffusion method
Helicobacter pylori [4] = assay: Antibacterial activity against metronidazole-resistant Helicobacter pylori at 16 ug/disk after 3 to 5 days by filter paper disk diffusion method
Helicobacter pylori [5] = assay: Antibacterial activity against metronidazole-resistant Helicobacter pylori at 32 ug/disk after 3 to 5 days by filter paper disk diffusion method
Helicobacter pylori [6] = assay: Antibacterial activity against metronidazole-sensitive Helicobacter pylori at 8 ug/disk after 3 to 5 days by filter paper disk diffusion method
Helicobacter pylori [7] = assay: Antibacterial activity against Helicobacter pylori clinical isolates at 8 ug/disk after 3 to 5 days by filter paper disk diffusion method
Helicobacter pylori [8] = assay: Antibacterial activity against Helicobacter pylori clinical isolates at 4 ug/disk after 3 to 5 days by filter paper disk diffusion method
Helicobacter pylori [9] = assay: Antibacterial activity against Helicobacter pylori clinical isolates at 32 ug/disk after 3 to 5 days by filter paper disk diffusion method
Helicobacter pylori [10] = assay: Antibacterial activity against Helicobacter pylori clinical isolates at 0.5 ug/disk after 3 to 5 days by filter paper disk diffusion method
Helicobacter pylori [11] = assay: Antibacterial activity against Helicobacter pylori clinical isolates at 2 ug/disk after 3 to 5 days by filter paper disk diffusion method
Helicobacter pylori [12] = assay: Antibacterial activity against Helicobacter pylori clinical isolates at 1 ug/disk after 3 to 5 days by filter paper disk diffusion method
Helicobacter pylori [13] = assay: Antibacterial activity against Helicobacter pylori clinical isolates at 16 ug/disk after 3 to 5 days by filter paper disk diffusion method

SMILES	zone of inhibition at 16 µg/disc (Helicobacter pylori [1])	zone of inhibition at 32 µg/disc (Helicobacter pylori [2])	zone of inhibition at 8 µg/disc (Helicobacter pylori [3])	zone of inhibition at 16 µg/disc (Helicobacter pylori [4])	zone of inhibition at 32 µg/disc (Helicobacter pylori [5])	zone of inhibition at 8 µg/disc (Helicobacter pylori [6])	zone of inhibition at 8 µg/disc (Helicobacter pylori [7])	zone of inhibition at 4 µg/disc (Helicobacter pylori [8])	zone of inhibition at 32 µg/disc (Helicobacter pylori [9])	zone of inhibition at 0.5 µg/disc (Helicobacter pylori [10])	zone of inhibition at 2 µg/disc (Helicobacter pylori [11])	zone of inhibition at 1 µg/disc (Helicobacter pylori [12])	zone of inhibition at 16 µg/disc (Helicobacter pylori [13])
O=[N+]([O-])c1ccc(-c2nnc(N3CCCCC3)s2)s1	6 mm	6 mm	6 mm	6 mm	6 mm	6 mm	–	–	–	–	–	–	–
O=[N+]([O-])c1ccc(-c2nnc(N3CCOCC3)s2)s1	6 mm	15 mm	6 mm	6 mm	6 mm	6 mm	–	–	–	–	–	–	–
O=[N+]([O-])c1ccc(-c2nnc(N3CCOCC3)s2)o1	36 mm	42 mm	30 mm	33 mm	48 mm	33 mm	32.1 mm	28.4 mm	40 mm	10.8 mm	23.7 mm	17.5 mm	36.6 mm
O=[N+]([O-])c1ccc(-c2nnc(N3CCCCC3)s2)o1	32 mm	35 mm	27 mm	32 mm	34 mm	28 mm	30.5 mm	27.4 mm	36.5 mm	13.7 mm	24.9 mm	19 mm	33.5 mm
Cn1c([N+](=O)[O-])cnc1-c1nnc(N2CCOCC2)s1	31 mm	32 mm	26 mm	31 mm	33 mm	25 mm	27.6 mm	22.5 mm	33.5 mm	13.7 mm	21.3 mm	19.4 mm	30.6 mm
Cn1c([N+](=O)[O-])cnc1-c1nnc(N2CC[S+]([O-])CC2)s1	19 mm	25 mm	6 mm	15 mm	21 mm	6 mm	–	–	–	–	–	–	–
O=[N+]([O-])c1ccc(-c2nnc(N3CCS(=O)(=O)CC3)s2)s1	6 mm	16 mm	6 mm	6 mm	6 mm	6 mm	–	–	–	–	–	–	–
Cn1c([N+](=O)[O-])cnc1-c1nnc(N2CCSCC2)s1	31 mm	34 mm	24 mm	27 mm	30 mm	27 mm	27.4 mm	23.7 mm	32.4 mm	9.9 mm	20 mm	15.6 mm	30.4 mm
O=[N+]([O-])c1ccc(-c2nnc(N3CCSCC3)s2)o1	35 mm	41 mm	26 mm	37 mm	42 mm	32 mm	30.1 mm	27.7 mm	36.9 mm	10.8 mm	23.4 mm	18.3 mm	32.9 mm
O=[N+]([O-])c1ccc(-c2nnc(N3CCSCC3)s2)s1	18 mm	22 mm	16 mm	19 mm	21 mm	16 mm	–	–	–	–	–	–	–
O=[N+]([O-])c1ccc(-c2nnc(N3CC[S+]([O-])CC3)s2)s1	39 mm	46 mm	32 mm	35 mm	41 mm	34 mm	34.4 mm	28.1 mm	45 mm	13.7 mm	23.6 mm	18.5 mm	39.9 mm
O=[N+]([O-])c1ccc(-c2nnc(N3CCS(=O)(=O)CC3)s2)o1	50 mm	> 50 mm	41 mm	43 mm	46 mm	43 mm	36.1 mm	30.7 mm	44.3 mm	16.6 mm	25.5 mm	21 mm	40.7 mm
O=[N+]([O-])c1ccc(-c2nnc(N3CC[S+]([O-])CC3)s2)o1	41 mm	46 mm	35 mm	40 mm	43 mm	35 mm	31 mm	25.4 mm	41.9 mm	7.3 mm	19.9 mm	13.4 mm	37.1 mm
Cn1c([N+](=O)[O-])cnc1-c1nnc(N2CCCCC2)s1	6 mm	6 mm	6 mm	6 mm	6 mm	6 mm	–	–	–	–	–	–	–
Cn1c([N+](=O)[O-])cnc1-c1nnc(N2CCS(=O)(=O)CC2)s1	40 mm	45 mm	27 mm	36 mm	40 mm	32 mm	30.2 mm	25.9 mm	37.3 mm	10.6 mm	19.3 mm	14.9 mm	33.9 mm
CC1(C)S[C@@H]2[C@H](NC(=O)[C@H](N)c3ccc(O)cc3)C(=O)N2[C@H]1C(=O)O [AMOXICILLIN]	–	–	–	–	–	–	–	–	–	–	–	24.5 mm	–
Cc1ncc([N+](=O)[O-])n1CCO [METRONIDAZOLE]	–	–	11 mm	–	–	18 mm	16.3 mm	–	–	–	–	–	–
